Experiments:
[1] = tested on: adhesion of eosinophils to vascular endothelial cells; test: Inhibition of adhesion of eosinophils to TNF-treated HUVEC; type: cell-based; settings: test compound concentration at TNF treatment and adhesion reaction; HUVEC treated with 100 U/ml TNF for 6 hours; adhesion reaction 20 minutes; human peripheral blood eosinophils
Description: Human umbilical vein-derived endothelial cells (HUVEC) were placed in a single layer in a 96 well plate and treated with 100 U/mi tumor necrosis factor (TNF) for 6 hours. The eosinophils obtained from peripheral blood of healthy human were fluorescence-labeled and layered on the TNF-treated HUVEC. After adhesion reaction for 20 minutes, unadhered eosinophils were removed by washing and fluorescent intensity of each well of the plate was measured to determine the eosinophils adhered to the HUVEC. The test compound was added so that the concentration at TNF treatment and adhesion reaction was 10-^SM.

[2] = tested on: intraperitoneal infiltration of eosinophils; test: Intraperitoneal infiltration of eosinophils in rat (Ascaris extract induced); type: in vivo; settings: 3 mg/kg orally once a day for 9 days; Asc-sensitized male Wistar rats; eosinophils counted 48 hours after antigen induction
Description: Ascaris extract (Asc, protein amount 8 mg) was intraperitoneally administered to male Wistar rats to sensitize them. Seven days later, 4 mg protein amount of Asc was intraperitoneally administered to induce intraperitoneal infiltration of eosinophils. Forty-eight hours after the antigen induction, abdominal cavity was washed, and the infiltrated eosinophils were counted. The test compound (3 mg/kg) was orally administered once a day for 9 days from the day of antigen sensitization to one day before recovery of the infiltrated intraperitoneal cells.

[3] = tested on: infiltration of eosinophils in the airway; test: Infiltration of eosinophils into bronchovesicles in rats (ovalbumin induced); type: in vivo; settings: 10 mg/kg orally 5 minutes before and 5 hours after antigen induction; OA-sensitized male BN rats; bronchial wash 24 hours later
Description: An ovalbumin (OA) antigen (10 mg/kg) was intramuscularly administered to male BN rats, and 5 x 10^10 nonvial Bordetella pertussis cells were intraperitoneally administered to sensitize them. Fourteen days later, the rats were exposed to 2% OA to induce infiltration of eosinophils in the airway. Twenty-four hours later, bronchial tubes were washed and infiltrated cells were recovered to count the infiltrated eosinophils. The test compound (10 mg/kg) was orally administered 5 minutes before and 5 hours after the induction with antigen.

SMILES | Suppression of adhesion of eosinophils (%) [1] [%] | Suppression of infiltration of eosinophils (%) [2] [%] | Suppression of infiltration of eosinophils (%) [3] [%]
CC(=O)OCC(=O)Nc1cc(C#N)cc(N)c1Cl [3-(acetoxyacetylamino)-5-amino-4-chlorobenzonitrile] | 70 | 55 | 53
N#Cc1cc(N)c(Cl)c(NC(=O)CO)c1 [3-amino-4-chloro-5-(hydroxyacetylamino)benzonitrile] | 74 | 54 | 48
COCC(=O)Nc1cc(C#N)cc(N)c1Cl [3-amino-4-chloro-5-(methoxyacetylamino)benzonitrile] | 62 | 42 | 56

From patent EP0687468A2, “Pharmaceutical composition for suppressing infiltration of eosinophils” (Toyo Boseki Kabushiki Kaisha, priority 1994, dated 1995)
